{"source": "ChEMBL document CHEMBL1135052", "about": "“7-Methoxyfuro[2,3-c]pyridine-4-carboxamides as PDE4 inhibitors: a potential treatment for asthma” (Bioorg Med Chem Lett, 2002)", "key": {"[1]": {"target": "T1, Phosphodiesterase 4 (Homo sapiens, UniProt P27815+Q08499+Q07343+Q08493)", "assay": "(§1) Inhibition of human phosphodiesterase 4 from U937 cells", "assay_type": "cell-based", "conditions": "u-937"}, "[2]": {"target": "T1, Phosphodiesterase 4", "assay": "as §1", "assay_type": "cell-based", "conditions": "U-937, concentration not given here"}, "[3]": {"target": "T2, Phosphodiesterase 3 (Homo sapiens) (UniProt Q14432+Q13370)", "assay": "Inhibition of human platelet Phosphodiesterase 3 at 20 uM (inactive)"}, "[4]": {"target": "T2, Phosphodiesterase 3 (Homo sapiens)", "assay": "Inhibition of human platelet Phosphodiesterase 3 at 1 uM (inactive)"}, "[5]": {"assay": "AUC tested in guinea pig when 3 mg/kg dose was given perorally", "assay_type": "ADME, organism-based, Cavia porcellus, Plasma", "parameters": "dose 3 mg/kg, route oral", "conditions": "in vivo, po"}, "[6]": {"assay": "Bioavailability in guinea pig was tested", "assay_type": "ADME, organism-based, Cavia porcellus", "conditions": "in vivo, read-out: Bioavailabiility"}, "[7]": {"assay": "Maximum plsma drug concentration in guinea pig when 3 mg/kg dose was given perorally", "assay_type": "ADME, organism-based, Cavia porcellus", "parameters": "dose 3 mg/kg, route oral", "conditions": "plasma, po"}, "[8]": {"target": "T2, Phosphodiesterase 3 (Homo sapiens)", "assay": "Inhibition of human platelet Phosphodiesterase 3 at 20 uM"}, "[9]": {"target": "T2, Phosphodiesterase 3 (Homo sapiens)", "assay": "Inhibition of human platelet phosphodiesterase 3 at 1 uM"}, "[10]": {"target": "Phosphodiesterase 4 (Rattus norvegicus) (UniProt P14270+P14646+P14644+P54748)", "assay": "Inhibition of rolipram binding to rat brain at 1 uM", "assay_type": "tissue-based"}}, "note": "The source made the active and inactive calls."}
{"smiles": "CCc1cc2c(C(=O)Nc3cc[n+]([O-])cc3C)cnc(OC)c2o1", "values": [{"measurement": "IC50", "setting": "[1]", "value": 120, "unit": "nM"}]}
{"smiles": "CCc1cc2c(C(=O)Nc3c(F)cccc3F)cnc(OC)c2o1", "values": [{"measurement": "IC50", "setting": "[1]", "value": 66, "unit": "nM"}]}
{"smiles": "CCc1cc2c(C(=O)Nc3cc[n+]([O-])cc3OC)cnc(OC)c2o1", "values": [{"measurement": "inhibition", "setting": "[2]", "value": 21, "unit": "%"}]}
{"smiles": "COCc1cc2c(C(=O)Nc3c(Cl)c[n+]([O-])cc3Cl)cnc(OC)c2o1", "values": [{"measurement": "IC50", "setting": "[1]", "value": 47, "unit": "nM"}, {"measurement": "inhibition", "setting": "[3]", "value": "inactive"}]}
{"smiles": "CCc1cc2c(C(=O)Nc3c(Cl)c[n+]([O-])cc3Cl)cnc(OC(F)F)c2o1", "values": [{"measurement": "IC50", "setting": "[1]", "value": 3.7, "unit": "nM"}]}
{"smiles": "COc1ncc(C(=O)Nc2c(Cl)c[n+]([O-])cc2Cl)c2cc(C3(OC)CCN(C(=O)OC(C)(C)C)CC3)oc12", "values": [{"measurement": "IC50", "setting": "[1]", "value": 48, "unit": "nM"}, {"measurement": "inhibition", "setting": "[3]", "value": "inactive"}]}
{"smiles": "CCc1cc2c(C(=O)Nc3c(C)cc(C#N)cc3Cl)cnc(OC)c2o1", "values": [{"measurement": "IC50", "setting": "[1]", "value": 230, "unit": "nM"}]}
{"smiles": "CCc1cc2c(C(=O)Nc3ncncc3C#N)cnc(OC)c2o1", "values": [{"measurement": "IC50", "setting": "[1]", "value": 140, "unit": "nM"}, {"measurement": "inhibition", "setting": "[4]", "value": "inactive"}]}
{"smiles": "CCc1cc2c(C(=O)Nc3c(Cl)c[n+]([O-])cc3Cl)cnc(OC)c2o1", "values": [{"measurement": "AUC", "setting": "[5]", "value": 4942, "unit": "ng/mL"}, {"measurement": "IC50", "setting": "[1]", "value": 14, "unit": "nM"}, {"measurement": "bioavailability", "setting": "[6]", "value": 54, "unit": "%"}, {"measurement": "Cmax", "setting": "[7]", "value": 1410, "unit": "ng/mL"}, {"measurement": "inhibition", "setting": "[8]", "value": 32, "unit": "%"}]}
{"smiles": "COc1ncc(C(=O)Nc2c(Cl)c[n+]([O-])cc2Cl)c2cc(C3CCOCC3)oc12", "values": [{"measurement": "IC50", "setting": "[1]", "value": 47, "unit": "nM"}, {"measurement": "inhibition", "setting": "[8]", "value": 3, "unit": "%"}]}
{"smiles": "COc1ncc(C(=O)Nc2c(Cl)c[n+]([O-])cc2Cl)c2cc(-c3cccnc3)oc12", "values": [{"measurement": "IC50", "setting": "[1]", "value": 62, "unit": "nM"}]}
{"smiles": "CCc1cc2c(C(=O)Nc3cc[n+]([O-])cc3Cl)cnc(OC)c2o1", "values": [{"measurement": "IC50", "setting": "[1]", "value": 120, "unit": "nM"}, {"measurement": "inhibition", "setting": "[9]", "value": 39, "unit": "%"}]}
{"smiles": "CCc1cc2c(C(=O)Nc3c(Cl)c[n+]([O-])cc3Cl)cnc(O)c2o1", "values": [{"measurement": "inhibition", "setting": "[2]", "value": 22, "unit": "%"}, {"measurement": "inhibition", "setting": "[10]", "value": 61, "unit": "%"}]}
{"smiles": "COc1ncc(C(=O)Nc2c(Cl)c[n+]([O-])cc2Cl)c2cc(C3CCOC3)oc12", "note": "(centres undefined)", "values": [{"measurement": "IC50", "setting": "[1]", "value": 23, "unit": "nM"}]}
